Measured values reported in patent US20250304560A1, “MODULATORS OF NLRP3 INFLAMMASOME AND RELATED PRODUCTS AND METHODS” (Neumora Therapeutics, Inc., priority 2022, published 2025).
Like-named read-outs stand apart in the source and are kept apart here.

Key:
[1] = biological target: T1, hERG channels (Homo sapiens, UniProt Q12809); assay: hERG assay, whole-cell patch-clamp in CHO-hERG cells; format: cell-based; settings: for IC50: whole-cell patch-clamp, CHO-hERG cells
T1 construct: host or cells: CHO-hERG cells
Protocol: CHO-hERG cells (Sophion Biosciences (Ballerup, Denmark), subcultured and frozen in WuXi AppTec (Suzhou) Co., Ltd.), stored in liquid nitrogen, were tested and determined to be free from mycoplasma contamination. Cells were not used after the 30th passage. CHO-hERG cells were cultured in a humidified incubator of 5% CO2 (4% to 8%) in air at 37° C. (±2° C.). The cells were recovered with recovery medium (F12 medium with 10% fetal bovine serum), subcultured in complete medium (F12 medium, supplemented with 10% fetal bovine serum, 1% Geneticin® selective antibiotic (G418), 89 μg/mL Hygromycin B (HB)), and the culture medium was switched to recovery medium in the last subculture before patch-clamp experiment.
To determine the compounds' IC50, select compounds (“test articles”) were dissolved into DMSO, and then diluted with ECS to get working solutions. Five concentrations of 0.3, 1, 3, 10, and 30 μM were tested. Two replicate cells for each concentration were tested.
Exponentially growing CHO-hERG cells were collected and suspended in extracellular solution for use. The hERG current was recorded at physiological temperature (33.0° C. to 37.0° C.) using whole-cell patch-clamp techniques. Output signals from the patch-clamp amplifier were digitized and low-pass filtered at 2.9 KHz. The recording was controlled with Patchmaster Pro software. The recording chamber with seeded cells was mounted on an inverted microscope stage. A cell in the recording chamber was randomly selected for testing. The cell was continuously perfused from the perfusion system. A micropipette filled with ICS was used as recording electrode in the manual patch-clamp study. The micropipette was prepared on the day of the patch-clamp experiment using glass capillaries (BF150-117-10, SUTTER INSTRUMENT USA). The pipette resistance (Rp) was within 2 to 5 MΩ with ICS filled. From the holding potential of-80 mV, the voltage was increased to +60 mV for 850 ms to open the hERG channels. After that, the voltage was decreased to-50 mV for 1275 ms, causing a “rebound” or tail current, the peak tail current was measured and collected for data analysis. Finally, the voltage was decreased to the holding potential (−80 mV). This command voltage protocol was repeated every 15 s continuously during the test article application.
During the initial recording period with vehicle control working solution, the peak tail current amplitude was monitored until it had been stable for at least 3 sweeps. Cells were then perfused with test article/positive control working solutions until the peak tail current amplitude reached steady state. Steady state was considered reached when three consecutive super-imposable peak tail currents were collected. At this point, cells were once again perfused with next concentration of test article. One or more test articles/positive control or different concentrations of the same test article were tested on each cell with vehicle control washout until the current amplitude returned to values at least 80% of those measured before application of test article. […] At least 2 replicate cells for each concentration were tested. […] (Milnes, J. T., et al.)
Seal criteria: When acquiring whole-cell configuration, a holding potential (e.g.,-80 mV) was applied while membrane parameters were collected (Cm, Rm and Rs). A “good” whole-cell recording was generally defined as: series resistance (Rs) was less than 10 MΩ; membrane resistance (Rm) was more than 500 MΩ and membrane capacitance (Cm) was less than 100 pF. Current amplitude: The peak current amplitude must be between 400 pA and 5000 pA before the test article/positive control application; otherwise the cell was discarded. Leak criteria: At-80 mV holding potential, the absolute leak current value must be less than 200 pA. The amplitude of current was adjusted with leak current at-80 mV. The sweeps which absolute leak current value was more than 200 pA was not used in data analysis.

[2] = biological target: NLRP3 inflammasome (Homo sapiens, UniProt Q96P20); assay: NLRP3 inflammasome activation in THP1 macrophages, IL-1β AlphaLISA
[3] = system: IL-6; assay: IL-6 AlphaLISA in LPS-primed THP1 macrophages; settings: for IC50: Homo sapiens
[4] = IL-1β Activity (nM), THP1 macrophages, PMA, LPS priming, nigericin 6.7 uM activation
[5] = IL-1β Activity, THP1 macrophages, Table 11 comparison
[6] = THP-1, read-out: IL-6 Activity (μM), THP1 macrophages, PMA, LPS priming, nigericin 6.7 uM
[7] = THP-1, read-out: IL-6 Activity, LPS-primed THP1 macrophages, Table 11 comparison

T1 sequence (Q12809 whole entry): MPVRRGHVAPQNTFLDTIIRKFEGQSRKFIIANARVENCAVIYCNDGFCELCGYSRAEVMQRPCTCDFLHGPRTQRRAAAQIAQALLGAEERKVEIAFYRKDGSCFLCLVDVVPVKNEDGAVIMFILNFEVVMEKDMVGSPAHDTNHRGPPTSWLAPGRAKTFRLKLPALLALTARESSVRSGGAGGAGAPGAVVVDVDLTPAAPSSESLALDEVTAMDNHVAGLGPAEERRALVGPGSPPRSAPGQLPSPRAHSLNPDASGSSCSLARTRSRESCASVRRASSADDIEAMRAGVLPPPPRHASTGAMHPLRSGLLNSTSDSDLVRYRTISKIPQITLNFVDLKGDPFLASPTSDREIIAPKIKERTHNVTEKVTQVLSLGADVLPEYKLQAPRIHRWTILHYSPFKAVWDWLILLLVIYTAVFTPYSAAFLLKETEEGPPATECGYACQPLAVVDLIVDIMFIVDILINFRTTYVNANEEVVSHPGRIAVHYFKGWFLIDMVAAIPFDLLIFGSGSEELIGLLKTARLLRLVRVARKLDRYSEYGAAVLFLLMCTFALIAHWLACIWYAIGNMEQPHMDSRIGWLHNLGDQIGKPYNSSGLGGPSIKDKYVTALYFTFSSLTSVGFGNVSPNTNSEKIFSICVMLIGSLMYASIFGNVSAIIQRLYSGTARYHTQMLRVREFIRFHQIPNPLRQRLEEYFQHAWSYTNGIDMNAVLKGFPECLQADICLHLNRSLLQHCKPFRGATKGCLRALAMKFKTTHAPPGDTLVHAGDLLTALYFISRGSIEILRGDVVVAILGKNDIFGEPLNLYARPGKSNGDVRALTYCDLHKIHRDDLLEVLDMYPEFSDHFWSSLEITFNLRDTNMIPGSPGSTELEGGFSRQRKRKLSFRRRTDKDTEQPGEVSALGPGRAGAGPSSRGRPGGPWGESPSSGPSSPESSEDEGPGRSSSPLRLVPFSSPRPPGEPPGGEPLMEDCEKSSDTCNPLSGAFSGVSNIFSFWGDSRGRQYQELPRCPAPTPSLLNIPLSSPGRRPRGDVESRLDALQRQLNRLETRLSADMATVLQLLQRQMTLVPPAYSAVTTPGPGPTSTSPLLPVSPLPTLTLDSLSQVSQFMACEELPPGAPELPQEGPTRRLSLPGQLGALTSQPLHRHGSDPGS
Chain of NLRP3 inflammasome (Q96P20 whole entry): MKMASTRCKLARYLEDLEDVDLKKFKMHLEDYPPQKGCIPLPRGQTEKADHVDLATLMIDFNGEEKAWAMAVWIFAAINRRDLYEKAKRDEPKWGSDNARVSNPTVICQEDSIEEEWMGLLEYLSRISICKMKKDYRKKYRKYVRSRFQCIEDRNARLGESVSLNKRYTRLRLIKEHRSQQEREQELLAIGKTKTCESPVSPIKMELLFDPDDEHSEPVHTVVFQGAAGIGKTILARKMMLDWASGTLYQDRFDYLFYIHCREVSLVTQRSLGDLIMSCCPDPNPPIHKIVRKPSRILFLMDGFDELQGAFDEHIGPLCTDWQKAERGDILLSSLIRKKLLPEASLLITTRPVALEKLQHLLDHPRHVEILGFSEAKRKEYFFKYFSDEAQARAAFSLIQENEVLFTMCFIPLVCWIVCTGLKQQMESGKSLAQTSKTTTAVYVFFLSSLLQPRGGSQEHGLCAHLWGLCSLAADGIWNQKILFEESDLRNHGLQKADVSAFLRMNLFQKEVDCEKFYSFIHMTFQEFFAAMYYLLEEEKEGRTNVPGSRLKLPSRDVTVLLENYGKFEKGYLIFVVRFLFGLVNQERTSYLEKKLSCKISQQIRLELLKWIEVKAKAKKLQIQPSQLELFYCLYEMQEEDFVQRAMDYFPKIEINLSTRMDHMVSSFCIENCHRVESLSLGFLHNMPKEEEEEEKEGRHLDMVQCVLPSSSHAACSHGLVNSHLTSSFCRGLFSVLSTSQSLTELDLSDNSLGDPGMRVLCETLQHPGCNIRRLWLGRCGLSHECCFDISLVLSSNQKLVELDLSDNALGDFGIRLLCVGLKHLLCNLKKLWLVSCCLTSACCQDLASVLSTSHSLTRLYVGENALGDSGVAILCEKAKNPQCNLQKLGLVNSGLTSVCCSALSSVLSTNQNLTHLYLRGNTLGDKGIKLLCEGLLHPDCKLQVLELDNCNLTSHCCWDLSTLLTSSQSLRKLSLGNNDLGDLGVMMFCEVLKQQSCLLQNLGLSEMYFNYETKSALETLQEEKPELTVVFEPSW

Compound: Cc1cc(O[C@@H]2CCCN(C)C2)nnc1-c1ccc(F)cc1O [compound 34]
- IC50 ([1]; 33.0-37.0 °C, Table 10): > 30 µM
- IC50 [2]: 10 to 100 nM
- IC50 ([3]; THP-1, read-out: IL-6 Activity (μM)): > 10 µM

Compound: Cc1cc(N[C@@H]2CCCN(C)C2)nnc1-c1ccc(C#N)cc1O [compound 51]
- hERG inhibition (in words) [1]: unexpectedly low
- IC50 ([1]; 33.0-37.0 °C, Table 10): > 30 µM
- IC50 ([1]; Table 11 comparison): > 30 µM
- IL-1ß activity (in words) [2]: potent
- IC50 [2, 4]: < 1 nM
- IC50 [2, 5]: < 1 nM
- IL-6 activity (in words) [3]: potent
- IC50 [3, 6]: 5 to 10 µM
- IC50 [3, 7]: 5 to 10 µM

Compound: Cc1cc(N[C@@H]2CCCN(C)C2)nnc1-c1cccc(C)c1O [compound 67]
- IC50 ([1]; 33.0-37.0 °C, Table 10): 10 to 20 µM
- IC50 [2, 4]: < 1 nM
- IC50 [3, 6]: 5 to 10 µM

Compound: Cc1cc(N[C@@H]2CCCN(C)C2)nnc1-c1ccccc1O [compound 2, 2-[4-methyl-6-[[(3R)-1-methyl-3-piperidyl]amino]pyridazin-3-yl]phenol]
- hERG inhibition (in words) [1]: unexpectedly low
- IC50 ([1]; 33.0-37.0 °C, Table 10): > 30 µM
- IC50 ([1]; Table 11 comparison): > 30 µM
- IL-1ß activity (in words) [2]: potent
- IC50 [2, 4]: 1 to 10 nM
- IC50 [2, 5]: 1 to 10 nM
- IL-6 activity (in words) [3]: potent
- IC50 [3, 6]: 5 to 10 µM
- IC50 [3, 7]: 5 to 10 µM

Compound: Cc1cc(F)cc(O)c1-c1ccc(N(C)[C@@H]2CCCN(C)C2)nn1 [compound 22]
- hERG inhibition (in words) [1]: unexpectedly low
- IC50 ([1]; 33.0-37.0 °C, Table 10): > 30 µM
- IC50 ([1]; Table 11 comparison): > 30 µM
- IL-1ß activity (in words) [2]: potent
- IC50 [2, 4]: 10 to 100 nM
- IC50 [2, 5]: 10 to 100 nM
- IL-6 activity (in words) [3]: potent
- IC50 [3, 6]: > 10 µM
- IC50 [3, 7]: > 10 µM

Compound: Cc1cc(N[C@@H]2CCCN(C)C2)nnc1-c1ccc(OC(F)(F)F)cc1O [B, reference compound]
- hERG inhibition (in words) [1]: high
- IC50 ([1]; Table 11 comparison): 1 to 3 µM
- IL-1ß activity (in words) [2]: potent
- IC50 [3, 7]: > 10 µM

Compound: Cc1cccc(O)c1-c1ccc(N[C@@H]2CCCN(C)C2)nn1 [compound 7]
- IC50 ([1]; 33.0-37.0 °C, Table 10): > 30 µM
- IC50 [2, 4]: 1 to 10 nM
- IC50 [3, 6]: 1 to 5 µM

Compound: Cc1cc(N[C@@H]2CCCN(C)C2)nnc1-c1ccc(C2CC2)cc1O [compound 3]
- hERG inhibition (in words) [1]: high
- IC50 ([1]; 33.0-37.0 °C, Table 10): 3 to 10 µM
- IC50 ([1]; Table 11 comparison): 3 to 10 µM
- IC50 [3, 6]: 5 to 10 µM
- IC50 [3, 7]: 5 to 10 µM

Compound: Cc1cc(N[C@@H]2CCCN(C)C2)nnc1-c1ccc(F)cc1O [compound 1]
- IC50 ([1]; 33.0-37.0 °C, Table 10): 20 to 30 µM
- IC50 [2, 4]: 1 to 10 nM
- IC50 [3, 6]: < 1 µM

Compound: Cc1cc(N[C@@H]2CCCN(C)C2)nnc1-c1ccc(Cl)cc1O [D, reference compound]
- hERG inhibition (in words) [1]: high
- IC50 ([1]; Table 11 comparison): 3 to 10 µM
- IL-1ß activity (in words) [2]: potent
- IC50 [3, 7]: > 10 µM

Compound: Cc1ccc(-c2nnc(N[C@@H]3CCCN(C)C3)cc2C)c(O)c1 [C, reference compound]
- hERG inhibition (in words) [1]: high
- IC50 ([1]; Table 11 comparison): 10 to 20 µM
- IL-1ß activity (in words) [2]: potent
- IC50 [2, 5]: < 1 nM
- IC50 [3, 7]: > 10 µM

Compound: Cc1cccc(O)c1-c1ccc(N(C)[C@@H]2CCCN(C)C2)nn1 [compound 21, (R)-3-methyl-2-(6-(methyl (1-methylpiperidin-3-yl)amino)pyridazin-3-yl) phenol]
- hERG inhibition (in words) [1]: unexpectedly low
- IC50 ([1]; 33.0-37.0 °C, Table 10): > 30 µM
- IC50 ([1]; Table 11 comparison): > 30 µM
- IL-1ß activity (in words) [2]: potent
- IC50 [2, 4]: 10 to 100 nM
- IC50 [2, 5]: 10 to 100 nM
- IL-6 activity (in words) [3]: potent
- IC50 [3, 6]: 5 to 10 µM
- IC50 [3, 7]: 5 to 10 µM
